Measurements reported in PubChem BioAssay (NCI).
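Each compound was tested at five concentrations against cells in 96-well plates for 48 hours. TGI denotes the concentration required for complete inhibition of growth.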

Columns and labels:
Assay in all cases: DTP human tumour cell line panel, 48 h
[1] = system: A549 NSCLC
[2] = system: OVCAR-3 ovarian
[3] = system: HL-60(TB) leukemia
[4] = system: OVCAR-4 ovarian
[5] = system: SNB-19 CNS
[6] = system: OVCAR-5 ovarian
[7] = system: T-47D breast
[8] = system: MALME-3M melanoma
[9] = system: BT-549 breast
[10] = system: UACC-257 melanoma
[11] = system: NCI-H226 lung
[12] = system: COLO 205 colon
[13] = system: SK-MEL-5 melanoma
[14] = system: MDA-MB-435
[15] = system: HCT-116 colon
[16] = system: M14 melanoma
[17] = system: K-562 leukemia
[18] = system: UACC-62 melanoma
[19] = system: NCI-H522 lung
[20] = system: MDA-N
[21] = system: CAKI-1 renal
[22] = system: DU-145 prostate
[23] = system: SF-268 CNS
[24] = system: MOLT-4 leukemia
[25] = system: IGROV1 ovarian
[26] = system: SNB-75 CNS
[27] = system: SK-MEL-28 melanoma
[28] = system: SK-MEL-2 melanoma
[29] = system: HCC-2998 colon
[30] = system: SR leukemia
[31] = system: HOP-62 NSCLC
[32] = system: TK-10 renal
[33] = system: RXF 393 renal
[34] = system: PC-3 prostate
[35] = system: UO-31 renal
[36] = system: HCT-15 colon
[37] = system: NCI/ADR-RES ovarian
[38] = system: KM12 colon
[39] = system: RPMI-8226 leukemia
[40] = system: EKVX NSCLC
[41] = system: SK-OV-3 ovarian
[42] = system: SN12C renal
[43] = system: SF-295 CNS
[44] = system: SW-620 colon
[45] = system: SF-539 CNS
[46] = system: MCF7 breast
[47] = system: NCI-H460 lung
[48] = system: 786-0 renal
[49] = system: HOP-92 NSCLC
[50] = system: HT29 colon
[51] = system: U251 CNS
[52] = system: A498 renal
[53] = system: MDA-MB-231 breast
[54] = system: OVCAR-8 ovarian
[55] = system: LOX IMVI melanoma
[56] = system: ACHN renal
[57] = system: HS 578T breast
[58] = system: CCRF-CEM leukemia
[59] = system: NCI-H23 lung
[60] = system: DLD-1 colon
[61] = system: LXFL 529 NSCLC
[62] = system: HOP-18 NSCLC
[63] = system: M19-MEL melanoma
[64] = system: KM20L2 colon
[65] = system: SNB-78 CNS
[66] = system: DMS 114 small cell lung

O=C1OC2(c3ccc(O)cc3Oc3cc(O)ccc32)c2c1c(-c1ccccc1)c(-c1ccccc1)c(-c1ccccc1)c2-c1ccccc1
TGI [1]: > 100 µM
TGI [2]: > 100 µM
TGI [3]: 39.4 µM
TGI [4]: 80.7 µM
TGI [5]: 37.7 µM
TGI [6]: 49.3 µM
TGI [7]: 71.4 µM
TGI [8]: 44.6 µM
TGI [9]: 53.8 µM
TGI [10]: 78.3 µM
TGI [11]: 87.3 µM
TGI [12]: 35.2 µM
TGI [13]: 54 µM
TGI [14]: 35.1 µM
TGI [15]: 57.3 µM
TGI [16]: 34.4 µM
TGI [17]: 70 µM
TGI [18]: 32.9 µM
TGI [19]: 32.6 µM
TGI [20]: 44.9 µM
TGI [21]: 62.8 µM
TGI [22]: 35.2 µM
TGI [23]: 53.1 µM
TGI [24]: 56.9 µM
TGI [25]: 37.4 µM
TGI [26]: 41 µM
TGI [27]: 44.6 µM
TGI [28]: 36.3 µM
TGI [29]: 30 µM
TGI [30]: 46.1 µM
TGI [31]: 67.8 µM
TGI [32]: 59.6 µM
TGI [33]: 67.2 µM
TGI [34]: 32.7 µM
TGI [35]: 63.7 µM
TGI [36]: 38.5 µM
TGI [37]: 98.2 µM
TGI [38]: 32.3 µM
TGI [39]: 70.2 µM
TGI [40]: 59.1 µM
TGI [41]: > 100 µM
TGI [42]: 60.3 µM
TGI [43]: 49.5 µM
TGI [44]: 52 µM
TGI [45]: 40.8 µM
TGI [46]: 31.1 µM
TGI [47]: 33.7 µM
TGI [48]: 75.6 µM
TGI [49]: 36.8 µM
TGI [50]: 40.4 µM
TGI [51]: 31.5 µM
TGI [52]: 33.9 µM
TGI [53]: 37.4 µM
TGI [54]: 45.2 µM
TGI [55]: 32.4 µM
TGI [56]: 40.9 µM
TGI [57]: 47.7 µM

Cc1ccnc2c1ccc1nc3ccccc3n12
TGI [1]: > 100 µM
TGI [2]: > 100 µM
TGI [3]: > 100 µM
TGI [4]: > 100 µM
TGI [6]: > 100 µM
TGI [7]: > 100 µM
TGI [58]: > 100 µM
TGI [9]: > 100 µM
TGI [10]: > 100 µM
TGI [11]: > 100 µM
TGI [12]: > 100 µM
TGI [13]: 93.1 µM
TGI [14]: > 100 µM
TGI [15]: > 100 µM
TGI [16]: > 100 µM
TGI [17]: > 100 µM
TGI [18]: > 100 µM
TGI [19]: 44.5 µM
TGI [20]: > 100 µM
TGI [21]: > 100 µM
TGI [22]: > 100 µM
TGI [23]: 99.6 µM
TGI [24]: > 100 µM
TGI [25]: > 100 µM
TGI [26]: > 100 µM
TGI [28]: > 100 µM
TGI [29]: > 100 µM
TGI [30]: > 100 µM
TGI [31]: > 100 µM
TGI [32]: > 100 µM
TGI [33]: > 100 µM
TGI [34]: > 100 µM
TGI [35]: > 100 µM
TGI [37]: > 100 µM
TGI [59]: > 100 µM
TGI [38]: > 100 µM
TGI [39]: > 100 µM
TGI [40]: > 100 µM
TGI [42]: > 100 µM
TGI [43]: > 100 µM
TGI [44]: > 100 µM
TGI [45]: > 100 µM
TGI [46]: > 100 µM
TGI [47]: > 100 µM
TGI [48]: > 100 µM
TGI [49]: > 100 µM
TGI [50]: > 100 µM
TGI [52]: > 100 µM
TGI [53]: > 100 µM
TGI [54]: 92.4 µM
TGI [55]: > 100 µM
TGI [57]: > 100 µM

Nc1nccc(Nc2ccc(S(N)(=O)=O)cc2)n1
TGI [1]: > 100 µM
TGI [2]: > 100 µM
TGI [3]: > 100 µM
TGI [4]: > 100 µM
TGI [5]: > 100 µM
TGI [6]: > 100 µM
TGI [7]: > 100 µM
TGI [8]: > 100 µM
TGI [58]: > 100 µM
TGI [9]: > 100 µM
TGI [10]: > 100 µM
TGI [11]: > 100 µM
TGI [12]: > 100 µM
TGI [13]: > 100 µM
TGI [14]: > 100 µM
TGI [15]: > 100 µM
TGI [16]: > 100 µM
TGI [17]: > 100 µM
TGI [18]: > 100 µM
TGI [19]: > 100 µM
TGI [20]: > 100 µM
TGI [21]: > 100 µM
TGI [22]: > 100 µM
TGI [23]: > 100 µM
TGI [24]: > 100 µM
TGI [25]: > 100 µM
TGI [26]: > 100 µM
TGI [27]: > 100 µM
TGI [28]: > 100 µM
TGI [29]: > 100 µM
TGI [30]: > 100 µM
TGI [31]: > 100 µM
TGI [32]: > 100 µM
TGI [33]: > 100 µM
TGI [34]: > 100 µM
TGI [35]: > 100 µM
TGI [36]: > 100 µM
TGI [37]: > 100 µM
TGI [59]: > 100 µM
TGI [38]: > 100 µM
TGI [39]: > 100 µM
TGI [40]: > 100 µM
TGI [41]: > 100 µM
TGI [42]: > 100 µM
TGI [43]: > 100 µM
TGI [44]: > 100 µM
TGI [45]: > 100 µM
TGI [46]: > 100 µM
TGI [47]: > 100 µM
TGI [48]: > 100 µM
TGI [49]: > 100 µM
TGI [50]: > 100 µM
TGI [51]: > 100 µM
TGI [52]: > 100 µM
TGI [53]: > 100 µM
TGI [54]: > 100 µM
TGI [55]: > 100 µM
TGI [56]: > 100 µM
TGI [57]: > 100 µM

COc1cc(-c2c(C)c(C)nc(OC)c2C#N)cc(OC)c1OC
TGI [1]: > 100 µM
TGI [2]: > 100 µM
TGI [60]: > 100 µM
TGI [3]: > 100 µM
TGI [4]: > 100 µM
TGI [5]: > 100 µM
TGI [8]: > 100 µM
TGI [58]: > 100 µM
TGI [10]: > 100 µM
TGI [61]: > 100 µM
TGI [11]: > 100 µM
TGI [12]: > 100 µM
TGI [13]: > 100 µM
TGI [15]: > 100 µM
TGI [16]: > 100 µM
TGI [17]: > 100 µM
TGI [18]: > 100 µM
TGI [62]: > 100 µM
TGI [23]: > 100 µM
TGI [63]: > 100 µM
TGI [64]: > 100 µM
TGI [24]: > 100 µM
TGI [25]: > 100 µM
TGI [26]: > 100 µM
TGI [27]: > 100 µM
TGI [28]: > 100 µM
TGI [29]: > 100 µM
TGI [31]: > 100 µM
TGI [32]: > 100 µM
TGI [33]: > 100 µM
TGI [35]: > 100 µM
TGI [36]: > 100 µM
TGI [65]: > 100 µM
TGI [59]: > 100 µM
TGI [38]: > 100 µM
TGI [39]: > 100 µM
TGI [40]: > 100 µM
TGI [41]: > 100 µM
TGI [42]: > 100 µM
TGI [43]: > 100 µM
TGI [44]: > 100 µM
TGI [45]: > 100 µM
TGI [66]: > 100 µM
TGI [47]: > 100 µM
TGI [48]: > 100 µM
TGI [49]: > 100 µM
TGI [50]: > 100 µM
TGI [51]: > 100 µM
TGI [52]: > 100 µM
TGI [54]: > 100 µM
TGI [56]: > 100 µM
